The values below come from patent publication US6486144B1, “Method of treatment of liver tumors and pharmaceutical compositions for use therein” (priority 1997, dated 2002).

Several values for one entry are separate records, joined by “and”; a condition that tells them apart may be missing. Equal values may be shown once. Entries after “also recorded” stand apart in the source; their conditions may differ.

The nature of series [1]: pig model, intravenous versus hepatic arterial infusion, serum calcium. It is filed as in vivo, Female Landrace pigs. The conditions noted are these: for calcium levels: pig. From the text: Female Landrace pigs (minimal disease) of weight 15-50 kg.
This infusion was delivered for a one or two week period, after which the animal was not treated for 4 weeks to allow any induced hepatic enzymes to diminish. The animal was then “crossed over” those whose first infusion was via the hepatic artery had their pump connected to an intravenous catheter and vice versa.
Blood was taken regularly and assayed foe calcium levels, LFTs and UECs.

A short description of series [2]: Phase 1 trial of hepatic artery infusion: safety, serum calcium. The format is in vivo, human. From the text: Regular assay of LFTs, UECs, and calcium and phosphate levels, together with AFP or CEA levels.
Patients 3, 5 and 6 were initially given 2 mcg/day, and then four weeks of 5 mcg/week.
Patient 4 was hypercalcaemic due to a paraneoplastic phenomena prior to treatment, and was therefore given lower dosages.
Patient 7 was commenced on the same dosage regimen as patients 3, 5 and 6 but was withdrawn from the trial prior to starting 10 mcg/day due to progression of their disease.
Calcium levels—looking for the development of hypercalcaemia
UECs and LFTs—looking for unexpected effects upon hepatic and renal function.

The format of series [3] is physicochemical. The method, then: To illustrate the solubility of vitamin D compound in lipiodol radiolabelled vitamin D3 was dissolved in lipiodol at various amounts and the compared to the solubility of radiolabelled vitamin D3.
For series [4], the system named is human colon cancer cells LoVo. In words: in vitro growth of human colon cancer cells LoVo. To be noted: treated for 10 days. The format is cell-based. The method, then: (§1) Results are % of control ±SEM
(§2) LoVo cells were treated for 10 days, while HepG2 cells were treated for 5 days, with D3 or EB1089.

Series [5] deals with human hepatoma cell line, Hep G2. Put plainly: in vitro growth of human hepatoma cell line Hep G2 (thymidine uptake). To be noted: for % of control ±SEM: treated for 5 days. It is filed as cell-based. The method, then:
as §1, §2

Series [6] deals with liver cancers (hepatoma or colorectal cancer metastases). Put plainly: Phase 1 trial of hepatic artery infusion: tumour marker (CEA or AFP) response. It is filed as in vivo, human. The conditions noted are these: for patients with at least a limited response (fall in the rate of rise of tumour marker): hepatic artery infusion. From the text: 2. To investigate the effects of such an infusion upon liver cancers by monitoring of tumour marker levels and their rate of rise. […] Regular assay of LFTs, UECs, and calcium and phosphate levels, together with AFP or CEA levels. CEA or AFP levels—looking for evidence of response of the tumours to treatment

For series [7] the following is noted: 2 mcg/day administered orally; cited from earlier work.
A further series has as its system breast cancer. The conditions noted are these: topical, cited from earlier work.
In the next series the test system is Morris. Put plainly: effect of EB1089 on hepatoma cell line Morris. It is filed as cell-based. Also on record: unit not given here. The conditions noted are these: day 5, 5% charcoal treated media, repeated experiments. The text has this: (§3) (All experiments carried out in 5% charcoal treated media. All day 5. Successive lines of results for a particular cell line are the results for repeated experiment)

A further series has as its system PCL. In words: effect of EB1089 on hepatoma cell line PCL. It is filed as cell-based. Further details: unit not given here. To be noted: day 5, 5% charcoal treated media, repeated experiments.
From the text: as §3

The next series deals with Hep 1-6. Put plainly: effect of EB1089 on hepatoma cell line Hep 1-6. It is filed as cell-based. Further details: unit not given here. To be noted: day 5, 5% charcoal treated media, repeated experiments.
From the text: as §3

The subject of another series is SK-Hep. In words: effect of EB1089 on hepatoma cell line SK-Hep. It is filed as cell-based. Further details: unit not given here. To be noted: day 5, 5% charcoal treated media, repeated experiments.
From the text: as §3

Another series relates to NovoKoff. In words: effect of EB1089 on hepatoma cell line NovoKoff. It is filed as cell-based. Also on record: unit not given here. To be noted: day 5, 5% charcoal treated media, repeated experiments.
From the text: as §3

The next series relates to HTC. In words: effect of EB1089 on hepatoma cell line HTC. It is filed as cell-based. Further details: unit not given here. The conditions noted are these: day 5, 5% charcoal treated media, repeated experiments.
From the text: as §3

The test system of the next series is human hepatoma. To be noted: cited from earlier work.

In the case of `C=C1/C(=C\C=C2/CCC[C@]3(C)[C@@H]([C@H](C)CCCC(C)(C)O)CC[C@@H]23)C[C@@H](O)C[C@@H]1O` [1.25(OH)2D3, 1.25-dihydroxycholecalciferol], the calcium levels result is “does not affect calcium levels; also recorded: does not produce the hypercalcaemia” in [1] (hepatic arterial infusion, similar dosage, listed as 1.25(OH)D3) and “results in hypercalcaemia” in series [1] (intravenous infusion). Further, in series [1] (pigs, either route), the “LFTs and UECs” value was “normal in all animals throughout”. In addition, the unexpected reaction entry in series [1] (pigs, either route) is reported as “No pig suffered any unexpected reaction”. In addition, the hypercalcaemia developed entry in [2] (hepatic arterial infusion, 15 mcg/day) is reported as “two out of three patients”. For the same compound, the “derangement of hepatic or renal function” value in series [2] (hepatic artery infusion, seven patients) is on record as “Nor did any patient experience any derangement of hepatic or renal function”. In addition, in series [2] (hepatic artery infusion, seven patients, listed as 1.25(OH)D3), the “unexpected adverse reaction or side effect to the infusion” value is “No patient suffered any unexpected adverse reaction or side effect; also recorded: safe and without unexpected side effects”. In series [2] (intraarterially to the liver, patients), the “dose administered without any observable systemic toxicity” value was “at least 10 mcg/day”. The calcium level entry in [2] (patient with pre existing hypercalcaemia (FIG. 3)) is recorded as “did not rise with treatment”. Besides, the hypercalcaemia during treatment result in series [2] (patients 1 and 2, lower doses) is “Neither patients 1 nor 2 became hypercalcaemic”. Further, the amount readily dissolved in [3] (in 1 ml lipiodol) is given as ≥ 2 mg. Also, the “% of control ±SEM” value in series [4] (10^−7 M) is listed as 34.2 ± 3.8 % of control; in series [4] (10^−8 M) it was 53.1 ± 5.0 % of control; in series [4] (10^−9 M), 74.2 ± 6.8 % of control; in series [4] (10^−10 M) it was 96.5 ± 12.9 % of control; in [4] (10^−11 M), 127.4 ± 7.1 % of control; in series [5] (HepG2, 10^−7 M), 7.1 ± 6.3 % of control. Further, the “% of control ±SEM” value in series [5] (HepG2, 10^−8 M) is 8.6 ± 6.3 % of control; in series [5] (HepG2, 10^−9 M), 13.8 ± 6.4 % of control; in series [5] (HepG2, 10^−10 M) it was 56.6 ± 6.7 % of control; in series [5] (HepG2, 10^−11 M) it was 105.6 ± 6.6 % of control. Also, the inhibition of growth (commonly the relative decrease from the control value, in per cent) in series [5] (Hep G2, 10^−11M) is “considerably less effective”; in series [5] (Hep G2, reduction in thymidine uptake, dose dependent (FIG. 1)), 95%. Moreover, the “patients with at least a limited response (fall in the rate of rise of tumour marker)” value in series [6] was 4 of 7 patients. Moreover, the tumour marker level result in series [6] (patient 1) is given as “dramatically increased at the onset of treatment but this was followed by an equally dramatic fall in the level”; in series [6] (patient 2), “levelling off of the rate of rise with time”; in series [6] (patient 3), “dramatic fall in marker level initially, but later this resumed it rise”. The “rate of rise of CEA levels” value in series [6] (patient 7) is on record as “appears to have slowed somewhat”. In addition, the “CEA levels rate of rise” value in [6] (patients 5 and 6) is reported as “did not appear to have any response to treatment”. The “hypercalcaemia, share of patients” value in [7] was 50 % of patients.

Take `C=C1/C(=C\C=C2/CCC[C@]3(C)[C@@H]([C@H](C)/C=C/[C@@H](O)C4CC4)CC[C@@H]23)C[C@@H](O)C[C@@H]1O` [Calcipotriol, calcipotriol]: in the series with breast cancer (of the 19 patients treated), the “patients with a minimal response” value was 1 patients and the “patients with a significant response” value is 3 patients. In addition, in the series with breast cancer, the “patients who became hypercalcaemic during treatment” value is listed as 2 of the 19 patients.

As to `C=C1/C(=C\C=C2/CCC[C@]3(C)[C@@H]([C@H](C)/C=C/C=C/C(O)(CC)CC)CC[C@@H]23)C[C@@H](O)C[C@@H]1O` [EB1089, 1 α.25 (OH)2 22.24 diene 24.26.27 trihomo D3], the “effect on hepatoma cell line” value in the series with Morris (10^7 M) was 136.0 ± 12.5 and 80.1 ± 5.2; with Morris (10^8 M), 134.0 ± 13.3 and 83.3 ± 4.7; with Morris (10^9 M), 117.8 ± 11.7 and 79.1 ± 4.9; with Morris (10^10 M) it was 118.0 ± 11.9 and 88.3 ± 3.9; in the series on Morris (10^-11 M), 118.0 ± 14.3 and 90.8 ± 5.9; in the series with PCL (10^7 M), 98.5 ± 4.5 and 106.0 ± 9.1. The “effect on hepatoma cell line” value was 101.6 ± 11.5 and 105.2 ± 4.9 in the series on PCL (10^8 M); 98.3 ± 6.5 and 95.1 ± 3.3 in the series with PCL (10^9 M); 92.5 ± 6.6 and 100.1 ± 2.1 in the series on PCL (10^10 M); 102.5 ± 10.0 and 95.9 ± 2.9 in the series with PCL (10^11 M); 63.9 ± 7.0 and 113.4 ± 5.6 with Hep 1-6 (Hep 1-6, 10^8 M); 78.1 ± 11.4 and 106.7 ± 5.4 with Hep 1-6 (Hep 1-6, 10^9 M). For the same compound, the “effect on hepatoma cell line” value in the series on Hep 1-6 (Hep 1-6, 10^11 M) was 103.4 ± 9.2 and 98.1 ± 4.3; in the series on Hep 1-6 (Hep 1-6, 10^-10 M) it was 110.8 ± 13.8 and 103.5 ± 4.5; with SK-Hep (10^8 M) it was 63.1 ± 16.2 and 71.3 ± 11.8 and 83.1 ± 4.2 and 95.6 ± 12.2; with SK-Hep (10^9 M), 52.1 ± 8.8 and 61.6 ± 12.2 and 88.4 ± 4.1 and 103.1 ± 12.4; in the series on SK-Hep (10^11 M), 82 ± 9.2 and 78.8 ± 11.5 and 118.3 ± 26.4 and 66.9 ± 36.9; with SK-Hep (10^-10 M), 52.1 ± 8.6 and 61.1 ± 16.6 and 91.0 ± 4.5 and 103.8 ± 11.7. For the same compound, the “effect on hepatoma cell line” value with NovoKoff (10^7 M) was 91.5 ± 14.5 and 84.6 ± 17.0; in the series with NovoKoff (10^8 M), 106.0 ± 18.1 and 79.0 ± 18.4; in the series on NovoKoff (10^9 M) it was 103.7 ± 13.8 and 95.4 ± 18.2; with NovoKoff (10^11 M) it was 131.0 ± 15.9 and 92.6 ± 17.6; with NovoKoff (10^-10 M), 116.3 ± 22.1 and 94.0 ± 21.4; in the series with HTC (10^7 M), 95.3 ± 17.7 and 57.9 ± 7.2. In addition, the “effect on hepatoma cell line” value with HTC (10^8 M) is 86.9 ± 15.0 and 63.9 ± 12.5; with HTC (10^9 M) it was 100.4 ± 15.4 and 97.4 ± 13.8; in the series with HTC (10^11 M) it was 98.8 ± 15.5 and 95.9 ± 13.0; with HTC (10^-10 M), 113.0 ± 22.1 and 107.8 ± 12.7. The “% of control ±SEM” value in series [4] (10^−7 M) is reported as 40.5 ± 10.7 % of control; in [4] (10^−8 M), 51.0 ± 10.3 % of control; in series [4] (10^−9 M) it was 73.3 ± 11.7 % of control; in [4] (10^−10 M), 55.3 ± 13.7 % of control; in series [4] (10^−11 M), 64.7 ± 12.7 % of control; in series [5] (HepG2, 10^−7 M) it was 11.2 ± 2.7 % of control. For the same compound, the “% of control ±SEM” value in [5] (HepG2, 10^−8 M) is given as 13.1 ± 2.8 % of control; in series [5] (HepG2, 10^−9 M) it was 13.2 ± 2.7 % of control; in series [5] (HepG2, 10^−10 M) it was 49.1 ± 2.9 % of control; in series [5] (HepG2, 10^−11 M), 41.7 ± 3.6 % of control.

Regarding `CC/C(=C(\c1ccccc1)c1ccc(OCCN(C)C)cc1)c1ccccc1` [Tamoxifen], in the series with human hepatoma, the survival result is reported as “significantly, but modestly, improve survival”.

As to `C=C1CC[C@H](O)C/C1=C/C=C1\CCC[C@]2(C)[C@@H]([C@H](C)CCCC(C)C)CC[C@@H]12` [vitamin D3, cholecalciferol], the “solubility in lipiodol compared with aqueous medium” value in series [3] is “substantially more soluble in lipiodol”. Also, in series [6], the “patients with at least a limited response (fall in the rate of rise of tumour marker)” value was 4 of 7 patients.
